The assay addresses Envelope glycoprotein gp160 (Human immunodeficiency virus 1, UniProt Q6QLK5). Description: inhibitors of HIV fusion peptide binding, primary screen, biochemical, uHTS, fluorescence dequenching (AID 1986).

We go through 1 compound from ChEMBL document CHEMBL1201862, “PubChem BioAssay data set” (2004).

Active and inactive are the calls of the source. Rule as the data show it: actives have a measured IC50 and inactives only a lower limit.

Sequence of Envelope glycoprotein gp160 (Q6QLK5 whole entry, the tested form may be a part): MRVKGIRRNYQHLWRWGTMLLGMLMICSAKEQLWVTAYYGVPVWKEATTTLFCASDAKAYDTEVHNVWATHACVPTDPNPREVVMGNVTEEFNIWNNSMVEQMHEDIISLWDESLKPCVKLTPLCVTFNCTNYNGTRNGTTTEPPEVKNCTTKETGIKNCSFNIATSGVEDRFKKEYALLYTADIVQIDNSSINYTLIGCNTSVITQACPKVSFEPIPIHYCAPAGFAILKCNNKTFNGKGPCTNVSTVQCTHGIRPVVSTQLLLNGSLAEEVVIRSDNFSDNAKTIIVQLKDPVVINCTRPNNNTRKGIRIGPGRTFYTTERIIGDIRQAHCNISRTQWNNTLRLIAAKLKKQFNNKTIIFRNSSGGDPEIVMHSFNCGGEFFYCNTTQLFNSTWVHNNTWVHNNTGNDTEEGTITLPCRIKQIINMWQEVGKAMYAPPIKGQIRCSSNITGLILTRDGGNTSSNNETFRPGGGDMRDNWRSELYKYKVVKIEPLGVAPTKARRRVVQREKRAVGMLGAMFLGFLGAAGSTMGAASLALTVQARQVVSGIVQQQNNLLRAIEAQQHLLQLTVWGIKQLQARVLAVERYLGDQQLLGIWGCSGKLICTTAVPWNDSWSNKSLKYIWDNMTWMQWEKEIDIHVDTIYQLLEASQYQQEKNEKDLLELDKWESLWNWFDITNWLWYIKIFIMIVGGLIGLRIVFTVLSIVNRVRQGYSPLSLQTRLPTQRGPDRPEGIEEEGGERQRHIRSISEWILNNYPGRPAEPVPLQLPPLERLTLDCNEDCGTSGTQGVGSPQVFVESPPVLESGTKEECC

In general, IC50 refers to the concentration needed to halve the response being measured. As for `O=C(N/N=C/c1ccc(-c2ccc(S(=O)(=O)Nc3ncccn3)cc2)o1)c1cc2ccccc2cc1O`, the IC50 is 5.36 µM (active).
